The values that follow come from patent US20070142462A1, “Method of Treating Cancer” (The University of Utah, priority 2000, published 2007).

Holding throughout (assay type): cell-based, human
The subject of test [1] is p65 component of NF-κB. In words: Immunohistochemical localization of p65 in M1619 cells. The following applies: 24 hours, catalase 3,000 U/ml, apocynin 150 μg/ml, dicumarol 250 μM. On the procedure:
The effect of antioxidants on nuclear activation of NF-κB was studied by incubating near confluent (70%) cell cultures with antioxidant treatments for 1-48 hours. Nuclear protein was harvested, and EMSAs were performed using DNA consensus binding sequences, or nuclear translocation of the p65 component of NF-κB was studied by immunoperoxidase staining, as outlined below.
Immunohistochemical Localization of NF-κB. Cells grown on sterile coverslips and treated with catalase 3,000 U/ml, apocynin 150 μg/ml, or DPBS or DMSO vehicles for 24 h were fixed for 20 min on ice with 4% paraformaldehyde in DPBS with protease inhibitors, PI [Sigma protease inhibitor cocktail, 10 μl/ml, containing 4-(2-aminoethyl)benzensulfonyl fluoride (AEBSF), pepstatin A, trans-epoxysuccinyl-L-leucylamindo-(guanidino)butane (E-64), bestatin, leupeptin and aprotinin]. Cells were permeabilized by treating for 2 min with 0.1% NP-40 in DPBS/PI, washed once with cold DPBS and fixed as before for 10 min. Coverslips were incubated in 3% hydrogen peroxide for 30 min to suppress any remaining peroxidase, and washed three times in cold DPBS. The permeabilized and fixed cells were blocked for 2 hours with 2% BSA in DPBS on ice and incubated overnight at 4° C. with 1 μg/ml of anti-p65 antibody (Santa Cruz) diluted in 0.1% BSA/DPBS. Unbound anti-p65 was washed away with 2% BSA/DPBS and bound antibody was stained by incubation with biotinylated goat anti-rabbit immunoglobulin diluted 1:50 in 0.1% BSA/DPBS for 45 min on ice. Excess secondary antibody was washed away by 3 washes with 2% BSA/DPBS on ice. After washing, the cells were incubated with a streptavidin-biotin-peroxidase complex at room temperature for 1 hr, washed again, and incubated in 0.03% wt/vol 3-3′diaminobenzidine with 0.003% vol/vol hydrogen peroxide until a brown reaction product could be seen. Cells were then counterstained with eosin and mounted on glass slides before viewing under light microscopy. […]

The subject of test [2] is GRO-α. In words: GRO-α ELISA in culture medium. The note with it: M1619; dicumarol 24 hours. The procedure: To study the impact of inhibiting NF-κB activation with antioxidants, cellular expression of the autocrine growth factor GRO-α was studied in near confluent monolayers of M1619 cells grown in 24-well plates. Cells were either treated with fresh complete medium or fresh medium containing 25 μM ebselen. After 24 hours, supernatants were harvested, microcentrifuged to remove cellular debris and frozen at −20° C. until GRO-α measurement as outlined below.
Measurement of GRO-α Expression. GRO-α was measured in culture medium from untreated and ebselen treated cells using a commercial ELISA purchased from R&D Systems, Minneapolis, Minn. This assay could not be used to detect GRO-α production by catalase treated cells because of interference in the peroxidase-based ELISA by catalase in the cell supernatant.
[…]. After 24 hours, GRO-α concentration was measured in media.
A general note: An ELISA detects its analyte on a solid surface through an enzyme-linked reagent.

Test [3] has as its system M1619 cells. In words: Ferricytochrome c reduction (O2− generation) by M1619 cells. The note with it: 160 μM ferricytochrome c; capsaicin 100 μM; dicumarol 250 μM pre-treatment 60 min; other inhibitors as. The procedure: Measurement of Reactive Oxygen Species. Superoxide (O2^−) generation was measured by the technique of superoxide dismutase (SOD) inhibitable reduction of ferricytochrome c, employing a modification allowing absorbance reading with an automatic enzyme immunoassay reader. See Friovich, I. in Handbook of Methods for Oxygen Radical Research (Greenwald, R. A., ed.), pp 121-122, CRC Press, Boca Raton, Fla., 1985; Pick, E. et al. J. Immunol. Methods 46:211-226 (1981). Confluent cells grown on 24-well plates were washed with DPBS, and incubated in 5% CO2/air at 37° C. with 160 μM ferricytochrome c in total volume of 550 μl of sodium bicarbonate-containing Krebs-Heinseleit buffer, or Hanks Balanced Salt Solution (HBSS), with and without copper-zinc SOD (1,000 units/ml). See Nozik-Grayck, et al., Am J. Physiol. 273 (17):L296-L304 (1997). The absorbance of each well was measured at 550 nm initially and 3-24 hours later using an ELx800 UV automated microplate reader (Biotek Instruments, Highland Park, Vt.). Monolayers were then washed with DPBS, and cell protein was measured using the BCA protein assay (Pierce). O2^− generation, normalized to cell protein, was computed from the Beer-Lambert relationship, as the quotient of SOD-inhibitable increase absorbance over time divided by the difference between the molar extinction coefficients for ferricytochrome c and ferrocytochrome c (ΔEM=2.1×10^4 M^−1 cm^−1). See Bashford, in Spectrophotometry & Spectrofluorimetry. A Practical Approach (Harris, D. A., and Bashford, C. L., eds) pp. 1-22, IRL Press, Washington, D.C., 1987; Friovich, I. in Handbook of Methods for Oxygen Radical Research (Greenwald, R. A., ed) pp 121-122, CRC Press, Boca Raton, Fla., 1985. […].
A. Capsaicin inhibits ferricytochrome c reduction. M1619 cells grown on 24-well plates were washed with DPBS, and incubated in 5% CO2/air at 37° C. with 160 μM ferricytochrome c in total volume of 550 μl of HBSS with or without the quinone analog capsaicin (100 μM final concentration) added in 5 μl/ml of ethanol. The absorbance of each well was measured at 550 nm initially and 3 hours later using an ELx800 UV automated microplate reader (Biotek Instruments, Highland Park, Vt.). The results are illustrated in FIG. 8A.
. […]. The results are illustrated in FIG. 9A.

With `O=c1oc2ccccc2c(O)c1Cc1c(O)c2ccccc2oc1=O` [Dicumarol, 3,3′-methylenebis[4-hydroxy-2H-1-benzopyran-2-one]], the “anti-p65 staining in nuclei (nuclear translocation of NF-κB)” value in test [1] is listed as “little staining in nuclei”. In addition, in test [2], the GRO-α protein expression result is recorded as “dramatic reduction”. Besides, the “ferricytochrome c reduction by M1619 cells” value in test [3] is on record as “significantly decreased”.
